In ChEMBL document CHEMBL1133839, “A new class of antiarrhythmic-defibrillatory agents” (2001):

Tests used:
Assay type in all cases: functional
Felis catus [1] = assay: Evaluated for its relative defibrillating activity in male cats 10 min after injection at concentration 3 mg/Kg
Felis catus [2] = assay: Evaluated for its relative defibrillating activity in male cats 10 min after injection at concentration 2 mg/Kg
Felis catus [3] = assay: Evaluated for its relative defibrillating activity in male cats 10 min after injection at concentration 1 mg/Kg
Felis catus [4] = assay: Evaluated for its relative defibrillating activity in male cats 10 min after injection at concentration 0.5 mg/Kg
Felis catus [5] = assay: Evaluated for its relative defibrillating activity in male cats 10 min after injection at 0.5 mg/Kg
Felis catus [6] = assay: Evaluated for its relative defibrillating activity in male cats 10 min after injection at 3 mg/Kg
Felis catus [7] = assay: Evaluated for its relative defibrillating activity in male cats 10 min after injection at 1 mg/Kg
Felis catus [8] = assay: Evaluated for its relative defibrillating activity in male cats 10 min after injection at 2 mg/Kg

SMILES | Relative activity (Felis catus [1]) | Relative activity (Felis catus [2]) | Relative activity (Felis catus [3]) | Relative activity (Felis catus [4]) | Relative activity (Felis catus [5]) | Relative activity (Felis catus [6]) | Relative activity (Felis catus [7]) | Relative activity (Felis catus [8])
CC(C)(C)NCCC(=O)N1c2ccccc2CCc2ccccc21.Cl | 100% | 100% | 50% | – | – | – | – | –
CC(C)NC[C@H](O)CN1c2ccccc2CCc2ccccc21.Cl | – | 100% | 100% | 75% | – | – | – | –
CC(C)CNCCC(=O)N1c2ccccc2CCc2ccccc21.Cl | 0% | 0% | 0% | – | – | – | – | –
CNCCC(=O)N1c2ccccc2NC(=O)c2ccccc21.Cl | 0% | 0% | 0% | – | – | – | – | –
CC(C)NCC(O)CN1c2ccccc2CCc2ccccc21.Cl (configuration not stated) | 100% | 100% | 50% | 50% | – | – | – | –
CCNCCC(=O)N1c2ccccc2NC(=O)c2ccccc21.Cl | 0% | 0% | – | – | – | – | – | –
CC(C)NCCC(=O)N1c2ccccc2NC(=O)c2ccccc21.Cl | 0% | 0% | – | – | – | – | – | –
CNCCC(=O)N1c2ccccc2CCc2ccccc21.Cl | – | – | – | – | 0% | 100% | 25% | 100%
CC(C)NCCC(=O)N1c2ccccc2CCc2ccccc21.Cl | – | 100% | 75% | 25% | – | 100% | – | –
CC(C)NC[C@@H](O)CN1c2ccccc2CCc2ccccc21.Cl | – | 100% | 50% | 50% | – | – | – | –
Cl.O=C(CCNCc1ccccc1)N1c2ccccc2CCc2ccccc21 | 0% | 0% | 0% | – | – | – | – | –
CCC(C)NCCC(=O)N1c2ccccc2CCc2ccccc21.Cl (configuration not stated) | 0% | 0% | 0% | – | – | – | – | –
CCNCCC(=O)N1c2ccccc2CCc2ccccc21.Cl | – | – | – | – | 0% | 100% | 50% | 75%
CNCCCN1c2ccccc2CCc2ccccc21 [DESIPRAMINE] | 100% | 75% | 25% | – | – | – | – | –
CN(C)CCCN1c2ccccc2CCc2ccccc21 [IMIPRAMINE] | 75% | 50% | 0% | – | – | – | – | –
